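Cultured in 96-well plates, cells were exposed to test compound for 48 hours across five concentrations. TGI marks complete inhibition of growth.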
How the values were obtained:
Assay in all cases: growth of human tumour cells (NCI), 48 h
[1] = tested on: 786-0 renal
[2] = tested on: HL-60(TB) leukemia
[3] = tested on: SK-OV-3 ovarian
[4] = tested on: NCI-H460 lung
[5] = tested on: TK-10 renal
[6] = tested on: LOX IMVI melanoma
[7] = tested on: MDA-N
[8] = tested on: EKVX NSCLC
[9] = tested on: HCC-2998 colon
[10] = tested on: NCI-H23 lung
[11] = tested on: UACC-257 melanoma
[12] = tested on: DU-145 prostate
[13] = tested on: A549 NSCLC
[14] = tested on: HOP-92 NSCLC
[15] = tested on: HOP-62 NSCLC
[16] = tested on: SF-539 CNS
[17] = tested on: SK-MEL-5 melanoma
[18] = tested on: SN12C renal
[19] = tested on: RPMI-8226 leukemia
[20] = tested on: SNB-75 CNS
[21] = tested on: SF-268 CNS
[22] = tested on: NCI-H522 lung
[23] = tested on: NCI/ADR-RES ovarian
[24] = tested on: PC-3 prostate
[25] = tested on: OVCAR-5 ovarian
[26] = tested on: IGROV1 ovarian
[27] = tested on: ACHN renal
[28] = tested on: SR leukemia
[29] = tested on: MCF7 breast
[30] = tested on: HT29 colon
[31] = tested on: UO-31 renal
[32] = tested on: KM12 colon
[33] = tested on: SK-MEL-28 melanoma
[34] = tested on: NCI-H226 lung
[35] = tested on: HCT-15 colon
[36] = tested on: OVCAR-3 ovarian
[37] = tested on: CCRF-CEM leukemia
[38] = tested on: SF-295 CNS
[39] = tested on: CAKI-1 renal
[40] = tested on: MOLT-4 leukemia
[41] = tested on: BT-549 breast
[42] = tested on: K-562 leukemia
[43] = tested on: U251 CNS
[44] = tested on: COLO 205 colon
[45] = tested on: RXF 393 renal
[46] = tested on: MDA-MB-231 breast
[47] = tested on: SK-MEL-2 melanoma
[48] = tested on: T-47D breast
[49] = tested on: OVCAR-8 ovarian
[50] = tested on: SW-620 colon
[51] = tested on: MDA-MB-435
[52] = tested on: MALME-3M melanoma
[53] = tested on: OVCAR-4 ovarian
[54] = tested on: HS 578T breast
[55] = tested on: UACC-62 melanoma
[56] = tested on: HCT-116 colon
[57] = tested on: A498 renal
[58] = tested on: SNB-19 CNS
[59] = tested on: M14 melanoma

`CC(=O)OC[C@H]1On2nnnc2[C@H](OC(C)=O)[C@@H](OC(C)=O)[C@@H]1OC(C)=O` gave a TGI [1] greater than 100 µM, a TGI [2] greater than 100 µM and a TGI [3] greater than 100 µM. It also gave a TGI [4] greater than 100 µM, a TGI [5] greater than 100 µM and a TGI [6] greater than 100 µM. For the same molecule, the TGI [7] was greater than 100 µM, the TGI [8] was greater than 100 µM and the TGI [9] was greater than 100 µM. It also gave a TGI [10] greater than 100 µM, a TGI [11] greater than 100 µM and a TGI [12] greater than 100 µM. It also gave a TGI [13] greater than 100 µM, a TGI [14] greater than 100 µM and a TGI [15] greater than 100 µM. The TGI [16] was greater than 100 µM, the TGI [17] was greater than 100 µM and the TGI [18] was greater than 100 µM. It also gave a TGI [19] greater than 100 µM, a TGI [20] greater than 100 µM and a TGI [21] greater than 100 µM. For the same molecule, the TGI [22] was greater than 100 µM, the TGI [23] was greater than 100 µM and the TGI [24] was greater than 100 µM. It also gave a TGI [25] greater than 100 µM, a TGI [26] greater than 100 µM and a TGI [27] greater than 100 µM. It also gave a TGI [28] greater than 100 µM, a TGI [29] greater than 100 µM and a TGI [30] greater than 100 µM. The TGI [31] was greater than 100 µM, the TGI [32] was greater than 100 µM and the TGI [33] was greater than 100 µM. For the same molecule, the TGI [34] was greater than 100 µM, the TGI [35] was greater than 100 µM and the TGI [36] was greater than 100 µM. The TGI [37] was greater than 100 µM, the TGI [38] was greater than 100 µM and the TGI [39] was greater than 100 µM. It also gave a TGI [40] greater than 100 µM, a TGI [41] greater than 100 µM and a TGI [42] greater than 100 µM. For the same molecule, the TGI [43] was greater than 100 µM, the TGI [44] was greater than 100 µM and the TGI [45] was greater than 100 µM. It also gave a TGI [46] greater than 100 µM, a TGI [47] greater than 100 µM and a TGI [48] greater than 100 µM. For the same molecule, the TGI [49] was greater than 100 µM, the TGI [50] was greater than 100 µM and the TGI [51] was greater than 100 µM. The TGI [52] was greater than 100 µM, the TGI [53] was greater than 100 µM and the TGI [54] was greater than 100 µM. The TGI [55] was greater than 100 µM, the TGI [56] was greater than 100 µM and the TGI [57] was greater than 100 µM.
`O=c1c2nc(-c3ccccc3)oc2n(-c2ccccc2)c(=O)n1-c1ccccc1` showed a TGI [1] of 31.7 µM, a TGI [2] greater than 100 µM and a TGI [3] of 40.1 µM. The TGI [4] was greater than 46.4 µM, the TGI [5] was 21.5 µM and the TGI [6] was greater than 46.4 µM. For the same molecule, the TGI [7] was greater than 46.4 µM, the TGI [8] was greater than 46.4 µM and the TGI [9] was greater than 46.4 µM. It also gave a TGI [10] greater than 46.4 µM, a TGI [11] greater than 46.4 µM and a TGI [12] greater than 100 µM. The TGI [13] was greater than 46.4 µM, the TGI [14] was 24.4 µM and the TGI [15] was 29.7 µM. It also gave a TGI [16] of 35.8 µM, a TGI [17] greater than 31.6 µM and a TGI [18] greater than 46.4 µM. For the same molecule, the TGI [19] was greater than 46.4 µM, the TGI [20] was 31.2 µM and the TGI [21] was 39.3 µM. The TGI [22] was 39.1 µM, the TGI [23] was greater than 31.6 µM and the TGI [24] was greater than 46.4 µM. The TGI [25] was greater than 46.4 µM, the TGI [26] was 41 µM and the TGI [27] was greater than 46.4 µM. The TGI [28] was greater than 31.6 µM, the TGI [29] was greater than 46.4 µM and the TGI [30] was greater than 46.4 µM. It also gave a TGI [31] greater than 31.6 µM, a TGI [32] greater than 46.4 µM and a TGI [33] greater than 100 µM. It also gave a TGI [58] of 36 µM, a TGI [34] of 44.1 µM and a TGI [35] greater than 46.4 µM. The TGI [36] was greater than 46.4 µM, the TGI [37] was greater than 46.4 µM and the TGI [38] was 42.4 µM. It also gave a TGI [39] of 18.2 µM, a TGI [40] greater than 46.4 µM and a TGI [41] greater than 46.4 µM. The TGI [42] was greater than 46.4 µM, the TGI [43] was 33.1 µM and the TGI [44] was greater than 46.4 µM. It also gave a TGI [45] of 34.8 µM, a TGI [46] greater than 46.4 µM and a TGI [47] greater than 46.4 µM. The TGI [48] was greater than 46.4 µM, the TGI [49] was 44.6 µM and the TGI [59] was greater than 46.4 µM. For the same molecule, the TGI [50] was greater than 46.4 µM, the TGI [51] was greater than 46.4 µM and the TGI [52] was greater than 31.6 µM. The TGI [53] was 36.6 µM, the TGI [54] was 39.5 µM and the TGI [55] was greater than 46.4 µM. The TGI [56] was greater than 46.4 µM and the TGI [57] was greater than 31.6 µM.
